In test [1] the test system is Escherichia coli. The experiment in a line: Antibacterial activity against Escherichia coli MC 1061 assessed as growth inhibition. The format is functional.
Test [2] has as its system Mycobacterium tuberculosis. The experiment in a line: Antibacterial activity against Mycobacterium tuberculosis H37Rv logarithmic phase forms by spot culture growth inhibition assay. The format is functional.
Test [3] concerns Staphylococcus aureus. The experiment in a line: Antibacterial activity against Staphylococcus aureus ATCC 29213 assessed as growth inhibition after 20 hrs by broth dilution method. Type of test: functional. The settings on record: ATCC 29213, 20 h. In general terms: Dilution methods test growth across graded concentrations, often in twofold steps.
Test [4] concerns Clostridioides difficile. The experiment in a line: Antibacterial activity against Clostridium difficile R20291 assessed as growth inhibition. The format is functional.
A short description of test [5]: Inhibition of Escherichia coli DNA gyrase supercoiling activity.
Test [6] in a line: Inhibition of Staphylococcus aureus topoisomerase 4 assessed as inhibition of decatenation of catenated kinetoplast DNA after 30 mins by agarose gel electrophoresis.
A short description of test [7]: Inhibition of Escherichia coli topoisomerase 4-mediated DNA relaxation activity.
Test [8] deals with Escherichia coli. The experiment in a line: Antibacterial activity against Escherichia coli NCTC 10418 assessed as growth inhibition. Type of test: functional.
The target in another test is DNA gyrase (Staphylococcus aureus, UniProt P0A0K8+P20831). The experiment in a line: Inhibition of Staphylococcus aureus DNA gyrase assessed as reduction in enzyme-catalyzed supercoiling of relaxed circular pBR322 DNA incubated for 30 mins by agarose gel electrophoresis. Type of test: protein-complex assay.
Sequence of DNA gyrase (P0A0K8 whole entry): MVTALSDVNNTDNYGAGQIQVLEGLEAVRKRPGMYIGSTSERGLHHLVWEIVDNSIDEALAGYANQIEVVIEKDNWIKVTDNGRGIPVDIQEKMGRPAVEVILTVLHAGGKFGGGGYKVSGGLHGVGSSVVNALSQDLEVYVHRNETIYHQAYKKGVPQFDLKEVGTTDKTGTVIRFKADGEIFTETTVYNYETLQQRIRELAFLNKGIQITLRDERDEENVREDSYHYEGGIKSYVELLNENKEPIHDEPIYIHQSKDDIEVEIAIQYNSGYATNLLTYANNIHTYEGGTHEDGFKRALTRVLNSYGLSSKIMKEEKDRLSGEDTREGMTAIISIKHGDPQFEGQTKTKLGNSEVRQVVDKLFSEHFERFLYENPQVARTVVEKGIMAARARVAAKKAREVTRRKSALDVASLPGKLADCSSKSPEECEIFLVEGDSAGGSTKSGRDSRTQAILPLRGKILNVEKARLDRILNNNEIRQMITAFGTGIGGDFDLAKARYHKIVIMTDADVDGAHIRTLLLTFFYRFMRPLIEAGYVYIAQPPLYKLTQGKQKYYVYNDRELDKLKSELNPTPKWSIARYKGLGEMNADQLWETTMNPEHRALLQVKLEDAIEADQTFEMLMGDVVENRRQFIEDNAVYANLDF
Sequence of DNA gyrase (P20831 whole entry): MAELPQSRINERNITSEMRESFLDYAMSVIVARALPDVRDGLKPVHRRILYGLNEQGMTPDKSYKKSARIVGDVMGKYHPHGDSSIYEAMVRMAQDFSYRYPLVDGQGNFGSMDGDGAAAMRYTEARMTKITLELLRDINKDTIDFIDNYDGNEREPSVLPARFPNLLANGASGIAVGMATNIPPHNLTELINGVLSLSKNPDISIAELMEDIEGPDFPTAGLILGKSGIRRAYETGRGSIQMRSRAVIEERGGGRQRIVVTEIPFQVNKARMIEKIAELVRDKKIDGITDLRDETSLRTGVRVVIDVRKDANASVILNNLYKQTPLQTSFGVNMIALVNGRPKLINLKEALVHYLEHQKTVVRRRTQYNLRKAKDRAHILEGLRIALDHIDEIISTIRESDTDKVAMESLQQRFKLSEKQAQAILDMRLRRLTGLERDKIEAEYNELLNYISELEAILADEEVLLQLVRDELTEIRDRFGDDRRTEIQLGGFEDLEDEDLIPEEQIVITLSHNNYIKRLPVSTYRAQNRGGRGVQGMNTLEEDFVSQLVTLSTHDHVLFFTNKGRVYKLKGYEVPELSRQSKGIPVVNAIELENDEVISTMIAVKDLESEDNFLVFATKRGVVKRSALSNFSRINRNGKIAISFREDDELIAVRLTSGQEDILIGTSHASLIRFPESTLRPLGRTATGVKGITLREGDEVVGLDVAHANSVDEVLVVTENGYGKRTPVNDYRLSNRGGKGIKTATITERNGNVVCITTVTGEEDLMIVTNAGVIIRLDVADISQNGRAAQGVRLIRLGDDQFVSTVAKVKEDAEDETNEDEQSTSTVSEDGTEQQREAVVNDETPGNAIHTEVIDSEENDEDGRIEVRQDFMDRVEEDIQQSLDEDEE
Test [9] addresses DNA gyrase subunit A/DNA gyrase subunit B (Mycobacterium tuberculosis (strain ATCC 25618 / H37Rv), UniProt P9WG45+P9WG47). The experiment in a line: Inhibition of Mycobacterium tuberculosis H37Rv DNA gyrase supercoiling activity.
Test [10] has as its system Clostridioides difficile. The experiment in a line: Antibacterial activity against Clostridium difficile CD 630 assessed as growth inhibition. Type of test: functional.
Test [11] can be described thus: Inhibition of Escherichia coli topoisomerase 4-mediated DNA decatenation activity.
For test [12], the system named is Staphylococcus aureus. The experiment in a line: Antibacterial activity against clinical isolates of Staphylococcus aureus EMRSA-16 assessed as growth inhibition after 20 hrs by broth dilution method. The format is functional. The settings on record: EMRSA-16, 20 h.
Test [13] has as its system Mycobacterium tuberculosis. The experiment in a line: Antibacterial activity against Mycobacterium tuberculosis H37Rv hypoxia-induced latency form by spot culture growth inhibition assay. The format is functional.
The nature of test [14]: Inhibition of Clostridium difficile DNA gyrase supercoiling activity. Details: species or system Clostridioides difficile.

From ChEMBL document CHEMBL3751811, “The discovery of a novel antibiotic for the treatment of Clostridium difficile infections: a story of an effective academic-industrial partnership” (Medchemcomm, 2015) come the findings set out here.

≈ marks a conversion by molar mass, not a printed value.

Sequence of DNA gyrase subunit A/DNA gyrase subunit B (P9WG45 whole entry): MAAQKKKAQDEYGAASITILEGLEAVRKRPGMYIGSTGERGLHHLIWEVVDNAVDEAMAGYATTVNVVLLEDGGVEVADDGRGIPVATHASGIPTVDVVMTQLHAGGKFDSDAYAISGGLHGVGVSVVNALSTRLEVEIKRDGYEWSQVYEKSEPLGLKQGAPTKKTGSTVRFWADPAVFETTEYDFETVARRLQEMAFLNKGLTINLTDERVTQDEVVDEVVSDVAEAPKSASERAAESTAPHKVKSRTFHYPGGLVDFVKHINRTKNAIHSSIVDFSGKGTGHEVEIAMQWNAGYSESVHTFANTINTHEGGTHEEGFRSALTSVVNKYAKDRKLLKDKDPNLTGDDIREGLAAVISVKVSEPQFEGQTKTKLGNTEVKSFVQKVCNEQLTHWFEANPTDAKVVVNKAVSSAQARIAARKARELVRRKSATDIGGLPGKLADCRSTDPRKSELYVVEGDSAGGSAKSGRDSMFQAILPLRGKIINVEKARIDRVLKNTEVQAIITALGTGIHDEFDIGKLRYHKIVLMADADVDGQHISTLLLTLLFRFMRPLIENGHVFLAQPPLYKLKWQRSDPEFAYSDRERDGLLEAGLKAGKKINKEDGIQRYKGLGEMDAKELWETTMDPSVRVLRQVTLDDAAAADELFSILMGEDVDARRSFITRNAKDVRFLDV
Sequence of DNA gyrase subunit A/DNA gyrase subunit B (P9WG47 whole entry): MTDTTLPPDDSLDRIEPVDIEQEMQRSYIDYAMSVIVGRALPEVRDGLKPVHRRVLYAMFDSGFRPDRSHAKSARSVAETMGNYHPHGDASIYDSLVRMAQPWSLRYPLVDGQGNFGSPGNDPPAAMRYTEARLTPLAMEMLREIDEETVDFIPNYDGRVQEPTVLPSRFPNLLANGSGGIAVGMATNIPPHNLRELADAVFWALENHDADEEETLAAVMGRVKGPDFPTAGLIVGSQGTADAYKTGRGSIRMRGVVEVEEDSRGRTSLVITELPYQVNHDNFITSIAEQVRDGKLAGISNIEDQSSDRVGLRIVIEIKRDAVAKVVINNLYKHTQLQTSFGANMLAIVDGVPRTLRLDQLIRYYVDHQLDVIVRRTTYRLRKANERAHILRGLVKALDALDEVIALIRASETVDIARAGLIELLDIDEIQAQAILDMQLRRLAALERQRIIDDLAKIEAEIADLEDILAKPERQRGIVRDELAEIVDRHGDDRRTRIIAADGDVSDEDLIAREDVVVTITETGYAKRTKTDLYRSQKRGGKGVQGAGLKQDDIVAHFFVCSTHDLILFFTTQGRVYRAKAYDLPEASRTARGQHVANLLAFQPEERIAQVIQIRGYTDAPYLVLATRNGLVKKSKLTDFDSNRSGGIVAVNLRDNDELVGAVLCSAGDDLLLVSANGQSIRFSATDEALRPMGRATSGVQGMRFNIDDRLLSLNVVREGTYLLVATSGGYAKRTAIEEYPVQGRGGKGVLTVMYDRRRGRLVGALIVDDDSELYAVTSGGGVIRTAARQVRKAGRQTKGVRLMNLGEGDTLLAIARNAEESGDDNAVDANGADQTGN

As a reminder, the MIC90 is the lowest concentration that inhibits either 90% of growth or 90% of the strains tested, depending on the study. In general, IC50 refers to the midpoint of a concentration-inhibition curve. Take `COc1cccc(-c2nc3ccc(-c4ccc5nc(-c6cccc(OC)c6)[nH]c5c4)cc3[nH]2)c1`: the MIC90 is over 64 mg/L with Escherichia coli [1]; over 16 mg/L in test [2]; over 128 mg/L in the test on Staphylococcus aureus [3]; over 32 mg/L in the test with Clostridioides difficile [4]; over 64 mg/L in the test with Escherichia coli [8]; over 32 mg/L in the test on Clostridioides difficile [10]. In addition, the MIC90 with Staphylococcus aureus [12] was over 128 mg/L. Also, the IC50 in test [5] is over 50 µM; in test [6], 70.3 µM; in test [7], over 50 µM; at DNA gyrase, 8.8 µM; in [9] it was 29 µM; in test [11], over 50 µM.
As for `Cc1ccc(-c2nc3ccc(-c4ccc5nc(-c6ccc(C)cc6)[nH]c5c4)cc3[nH]2)cc1`, the MIC90 in the test on Escherichia coli [1] is 0.06 mg/L (≈ 0.145 µM); in [2], 1 mg/L (≈ 2.41 µM); in the test on Staphylococcus aureus [3] it was 0.03 mg/L (≈ 0.0724 µM); with Clostridioides difficile [4], 0.06 mg/L (≈ 0.145 µM); in the test with Escherichia coli [8], over 64 mg/L; with Clostridioides difficile [10], 0.06 mg/L (≈ 0.145 µM). Besides, the MIC90 with Staphylococcus aureus [12] is 0.06 mg/L (≈ 0.145 µM); in [13] it was 2 mg/L (≈ 4.82 µM). The IC50 in test [5] was over 50 µM; in test [6], 50.9 µM; in [7], over 50 µM; on DNA gyrase it was 5.6 µM; in test [9] it was 2 µM; in test [11] it was over 50 µM.
Consider `Nc1ccc(-c2nc3cc(-c4ccc5[nH]c(-c6ccc(N)cc6)nc5c4)ccc3[nH]2)cc1`, for which the MIC90 was 0.06 mg/L (≈ 0.144 µM) with Escherichia coli [1]; 16 mg/L (≈ 38.4 µM) in [2]; 0.125 mg/L (≈ 0.3 µM) with Staphylococcus aureus [3]; 0.125 mg/L (≈ 0.3 µM) in the test on Clostridioides difficile [4]; over 64 mg/L in the test with Escherichia coli [8]; 0.03 mg/L (≈ 0.072 µM) with Clostridioides difficile [10]. Besides, the MIC90 is 0.5 mg/L (≈ 1.2 µM) in the test on Staphylococcus aureus [12] and 8 mg/L (≈ 19.2 µM) in test [13]. For the same molecule, the IC50 in test [5] was over 50 µM; in test [6], 15.5 µM; in test [14] it was 8.4 µM; in test [7] it was 6.5 µM; on DNA gyrase it was 0.3 µM; in [9] it was 11.3 µM. In addition, in [11], the IC50 came out at 8 µM.
As to `c1cc(-c2nc3cc(-c4ccc5[nH]c(-c6ccncc6)nc5c4)ccc3[nH]2)ccn1` [RIDINILAZOLE], the MIC90 in the test with Staphylococcus aureus [3] was over 128 mg/L; in the test with Clostridioides difficile [4] it was 0.125 mg/L (≈ 0.322 µM); with Escherichia coli [8] it was over 16 mg/L; in the test on Clostridioides difficile [10] it was 0.06 mg/L (≈ 0.154 µM); with Staphylococcus aureus [12], over 128 mg/L. The IC50 (in test [5]; in test [6]; in [14]; at DNA gyrase; in test [11]) was over 50 µM throughout.
